#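 Growth conditions: 96-well plates. Treatment: test compound, 48 hours, 5 concentrations. Analysis: linear interpolation between bracketing concentrations; unreached endpoints set to highest concentration. GI50 is the concentration that inhibits growth by half.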 The source made the active and inactive calls. Rule as the data show it: active = GI50 up to about 1.1 µM and inactive = higher.
# Legend:
# Assay in all cases: NCI-60 cell line screen, 48 h
# HOP-92 = tested on: HOP-92
# HCC 2998 = tested on: HCC 2998
# HCT-15 = tested on: HCT-15
# HOP-62 = tested on: HOP-62
# HT-29 = tested on: HT-29
# K562 = tested on: K562
# DU-145 = tested on: DU-145
# M14 = tested on: M14
# MOLT-4 = tested on: MOLT-4
# NCI-H23 = tested on: NCI-H23
# A549 = tested on: A549
# T47D = tested on: T47D
# COLO 205 = tested on: COLO 205
# MDA-N = tested on: MDA-N
# SK-MEL-28 = tested on: SK-MEL-28
# RPMI-8226 = tested on: RPMI-8226
# CCRF-CEM = tested on: CCRF-CEM
# OVCAR-8 = tested on: OVCAR-8
# UACC-257 = tested on: UACC-257
# HL-60 = tested on: HL-60
# CAKI-1 = tested on: CAKI-1
# OVCAR-4 = tested on: OVCAR-4
# SK-OV-3 = tested on: SK-OV-3
# PC-3 = tested on: PC-3
# 786-0 = tested on: 786-0
# SW-620 = tested on: SW-620
# MDA-MB-435 = tested on: MDA-MB-435
# SN12C = tested on: SN12C
# SK-MEL-5 = tested on: SK-MEL-5
# Malme-3M = tested on: Malme-3M
# SF-268 = tested on: SF-268
# EKVX = tested on: EKVX
# IGROV-1 = tested on: IGROV-1
# SF-295 = tested on: SF-295
# UACC-62 = tested on: UACC-62
# RXF 393 = tested on: RXF 393
# KM12 = tested on: KM12
# SR = tested on: SR
# SNB-75 = tested on: SNB-75
# LOX IMVI = tested on: LOX IMVI
# TK-10 = tested on: TK-10
# MDA-MB-231 = tested on: MDA-MB-231
# MCF7 = tested on: MCF7
# NCI-H226 = tested on: NCI-H226
# OVCAR-5 = tested on: OVCAR-5
# SF-539 = tested on: SF-539
# UO-31 = tested on: UO-31
# U-251 = tested on: U-251
# OVCAR-3 = tested on: OVCAR-3
# HCT-116 = tested on: HCT-116
# SK-MEL-2 = tested on: SK-MEL-2
# NCI/ADR-RES = tested on: NCI/ADR-RES
# SNB-19 = tested on: SNB-19
# ACHN = tested on: ACHN
# NCI-H460 = tested on: NCI-H460
# Hs-578T = tested on: Hs-578T
# A498 = tested on: A498
# NCI-H522 = tested on: NCI-H522
smiles,measurement,setting,value
COc1ccc2[nH]c3c([N+](=O)[O-])ccc(NCCN(C)C)c3/c(=N/CCN(C)C)c2c1,GI50,HOP-92,5.08 µM (inactive)
same,GI50,HCC 2998,0.867 µM (active)
same,GI50,HCT-15,1.31 µM
same,GI50,HOP-62,0.695 µM (active)
same,GI50,HT-29,1.77 µM (inactive)
same,GI50,K562,1.22 µM (inactive)
same,GI50,DU-145,2.88 µM (inactive)
same,GI50,M14,> 10 µM (inactive)
same,GI50,MOLT-4,172 nM (active)
same,GI50,NCI-H23,1.49 µM (inactive)
same,GI50,A549,1.66 µM (inactive)
same,GI50,T47D,> 10 µM (inactive)
same,GI50,COLO 205,2.01 µM (inactive)
same,GI50,MDA-N,1.75 µM (inactive)
same,GI50,SK-MEL-28,2.26 µM (inactive)
same,GI50,RPMI-8226,0.421 µM (active)
same,GI50,CCRF-CEM,237 nM (active)
same,GI50,OVCAR-8,0.634 µM (active)
same,GI50,UACC-257,> 10 µM (inactive)
same,GI50,HL-60,1.31 µM (inactive)
same,GI50,CAKI-1,3.97 µM (inactive)
same,GI50,OVCAR-4,0.521 µM (active)
same,GI50,SK-OV-3,2.85 µM (inactive)
same,GI50,PC-3,0.676 µM (active)
same,GI50,786-0,0.577 µM (active)
same,GI50,SW-620,1.04 µM (active)
same,GI50,MDA-MB-435,1.63 µM (inactive)
same,GI50,SN12C,1.37 µM (inactive)
same,GI50,SK-MEL-5,1.86 µM (inactive)
same,GI50,Malme-3M,2.58 µM (inactive)
same,GI50,SF-268,962 nM (active)
same,GI50,EKVX,2.24 µM (inactive)
same,GI50,IGROV-1,1.91 µM (inactive)
same,GI50,SF-295,1.58 µM (inactive)
same,GI50,UACC-62,7.23 µM (inactive)
same,GI50,RXF 393,1.03 µM (active)
same,GI50,KM12,1.26 µM (inactive)
same,GI50,SR,117 nM (active)
same,GI50,SNB-75,1.8 µM (inactive)
same,GI50,LOX IMVI,1.62 µM (inactive)
same,GI50,TK-10,3.13 µM (inactive)
same,GI50,MDA-MB-231,1.28 µM (inactive)
same,GI50,MCF7,0.453 µM (active)
CC12CCCCC1=[N+]([O-])C(C)(C)N2O (centres undefined),GI50,HOP-92,> 100 µM (inactive)
same,GI50,NCI-H226,> 100 µM (inactive)
same,GI50,HCC 2998,> 100 µM (inactive)
same,GI50,HCT-15,> 100 µM
same,GI50,OVCAR-5,> 100 µM (inactive)
same,GI50,HOP-62,> 100 µM (inactive)
same,GI50,HT-29,> 100 µM (inactive)
same,GI50,SF-539,> 100 µM (inactive)
same,GI50,K562,> 10 µM (inactive)
same,GI50,UO-31,> 100 µM (inactive)
same,GI50,DU-145,> 100 µM (inactive)
same,GI50,U-251,> 100 µM (inactive)
same,GI50,M14,> 100 µM (inactive)
same,GI50,NCI-H23,> 100 µM (inactive)
same,GI50,A549,> 100 µM (inactive)
same,GI50,T47D,> 100 µM (inactive)
same,GI50,COLO 205,> 100 µM (inactive)
same,GI50,MDA-N,> 100 µM (inactive)
same,GI50,OVCAR-3,> 100 µM (inactive)
same,GI50,SK-MEL-28,> 100 µM (inactive)
same,GI50,RPMI-8226,> 100 µM (inactive)
same,GI50,CCRF-CEM,> 100000 nM (inactive)
same,GI50,OVCAR-8,> 100 µM (inactive)
same,GI50,UACC-257,> 100 µM (inactive)
same,GI50,CAKI-1,> 100 µM (inactive)
same,GI50,OVCAR-4,> 100 µM (inactive)
same,GI50,SK-OV-3,> 100 µM (inactive)
same,GI50,HCT-116,> 100 µM (inactive)
same,GI50,SK-MEL-2,> 100 µM (inactive)
same,GI50,NCI/ADR-RES,> 100 µM (inactive)
same,GI50,PC-3,> 100 µM (inactive)
same,GI50,786-0,> 100 µM (inactive)
same,GI50,SW-620,> 100 µM (inactive)
same,GI50,MDA-MB-435,> 100 µM (inactive)
same,GI50,SN12C,> 100 µM (inactive)
same,GI50,SK-MEL-5,> 100 µM (inactive)
same,GI50,Malme-3M,> 100 µM (inactive)
same,GI50,SF-268,> 100000 nM (inactive)
same,GI50,EKVX,> 100 µM (inactive)
same,GI50,SNB-19,> 100 µM (inactive)
same,GI50,ACHN,> 100 µM (inactive)
same,GI50,NCI-H460,> 100 µM (inactive)
same,GI50,IGROV-1,> 100 µM (inactive)
same,GI50,SF-295,> 100 µM (inactive)
same,GI50,UACC-62,> 100 µM (inactive)
same,GI50,Hs-578T,> 100 µM (inactive)
same,GI50,RXF 393,> 100 µM (inactive)
same,GI50,KM12,> 100 µM (inactive)
same,GI50,SR,> 100000 nM (inactive)
same,GI50,LOX IMVI,> 100 µM (inactive)
same,GI50,TK-10,> 100 µM (inactive)
same,GI50,MDA-MB-231,> 100 µM (inactive)
same,GI50,MCF7,> 100 µM (inactive)
CCN(CCCl)c1cc(CN(C)C)cc(NC(=O)c2ccc(C(=O)Nc3cccc(CN(C)C)c3)cc2)c1,GI50,HOP-92,0.512 µM (active)
same,GI50,NCI-H226,3.21 µM (inactive)
same,GI50,HCC 2998,1.26 µM (inactive)
same,GI50,HCT-15,32.4 µM
same,GI50,OVCAR-5,10.6 µM (inactive)
same,GI50,HOP-62,0.326 µM (active)
same,GI50,HT-29,1.35 µM (inactive)
same,GI50,SF-539,0.457 µM (active)
same,GI50,K562,0.321 µM (active)
same,GI50,UO-31,27.7 µM (inactive)
same,GI50,DU-145,3.74 µM (inactive)
same,GI50,U-251,0.225 µM (active)
same,GI50,M14,4.27 µM (inactive)
same,GI50,MOLT-4,261 nM (active)
same,GI50,NCI-H23,1.54 µM (inactive)
same,GI50,A549,2.2 µM (inactive)
same,GI50,T47D,1.91 µM (inactive)
same,GI50,COLO 205,1.13 µM (inactive)
same,GI50,MDA-N,0.29 µM (active)
same,GI50,SK-MEL-28,2.07 µM (inactive)
same,GI50,RPMI-8226,2.16 µM (inactive)
same,GI50,CCRF-CEM,70.8 nM (active)
same,GI50,OVCAR-8,0.889 µM (active)
same,GI50,A498,2.65 µM (inactive)
same,GI50,UACC-257,1.83 µM (inactive)
same,GI50,HL-60,0.0467 µM (active)
same,GI50,CAKI-1,32.6 µM (inactive)
same,GI50,OVCAR-4,0.607 µM (active)
same,GI50,SK-OV-3,1.91 µM (inactive)
same,GI50,HCT-116,0.51 µM (active)
same,GI50,SK-MEL-2,0.467 µM (active)
same,GI50,NCI/ADR-RES,> 100 µM (inactive)
same,GI50,PC-3,0.305 µM (active)
same,GI50,786-0,0.383 µM (active)
same,GI50,SW-620,0.225 µM (active)
same,GI50,MDA-MB-435,0.238 µM (active)
same,GI50,SN12C,0.357 µM (active)
same,GI50,SK-MEL-5,0.213 µM (active)
same,GI50,Malme-3M,1.31 µM (inactive)
same,GI50,NCI-H522,16.1 nM (active)
same,GI50,SF-268,364 nM (active)
same,GI50,SNB-19,0.286 µM (active)
same,GI50,ACHN,2.94 µM (inactive)
same,GI50,NCI-H460,0.716 µM (active)
same,GI50,IGROV-1,0.274 µM (active)
same,GI50,SF-295,1.36 µM (inactive)
same,GI50,UACC-62,1.27 µM (inactive)
same,GI50,Hs-578T,0.23 µM (active)
same,GI50,RXF 393,0.247 µM (active)
same,GI50,KM12,1.28 µM (inactive)
same,GI50,SR,275 nM (active)
same,GI50,SNB-75,0.695 µM (active)
same,GI50,LOX IMVI,0.201 µM (active)
same,GI50,TK-10,3.73 µM (inactive)
same,GI50,MDA-MB-231,28.1 µM (inactive)
same,GI50,MCF7,0.11 µM (active)
O=C1Nc2ccccc2/C1=N/Nc1nc(-c2ccccc2)cs1,GI50,HOP-92,35.7 µM (inactive)
same,GI50,NCI-H226,> 100 µM (inactive)
same,GI50,HCC 2998,52.5 µM (inactive)
same,GI50,HCT-15,23.1 µM
same,GI50,OVCAR-5,58.3 µM (inactive)
same,GI50,HOP-62,18.2 µM (inactive)
same,GI50,HT-29,27.7 µM (inactive)
same,GI50,SF-539,10.1 µM (inactive)
same,GI50,UO-31,24.7 µM (inactive)
same,GI50,DU-145,35.5 µM (inactive)
same,GI50,U-251,24.2 µM (inactive)
same,GI50,M14,23.1 µM (inactive)
same,GI50,MOLT-4,45200 nM (inactive)
same,GI50,NCI-H23,47.6 µM (inactive)
same,GI50,A549,75.3 µM (inactive)
same,GI50,T47D,26.9 µM (inactive)
same,GI50,COLO 205,42.4 µM (inactive)
same,GI50,MDA-N,62.4 µM (inactive)
same,GI50,OVCAR-3,26.4 µM (inactive)
same,GI50,SK-MEL-28,36.1 µM (inactive)
same,GI50,OVCAR-8,40.1 µM (inactive)
same,GI50,UACC-257,56.2 µM (inactive)
same,GI50,HL-60,2.45 µM (inactive)
same,GI50,CAKI-1,18.3 µM (inactive)
same,GI50,OVCAR-4,40.7 µM (inactive)
same,GI50,SK-OV-3,59 µM (inactive)
same,GI50,HCT-116,31.9 µM (inactive)
same,GI50,SK-MEL-2,84.1 µM (inactive)
same,GI50,NCI/ADR-RES,20.5 µM (inactive)
same,GI50,PC-3,19.2 µM (inactive)
same,GI50,786-0,26.4 µM (inactive)
same,GI50,SW-620,> 100 µM (inactive)
same,GI50,MDA-MB-435,> 100 µM (inactive)
same,GI50,SN12C,27.1 µM (inactive)
same,GI50,SK-MEL-5,25.8 µM (inactive)
same,GI50,EKVX,21.4 µM (inactive)
same,GI50,SNB-19,29.9 µM (inactive)
same,GI50,ACHN,24.5 µM (inactive)
same,GI50,NCI-H460,14.7 µM (inactive)
same,GI50,IGROV-1,21.1 µM (inactive)
same,GI50,SF-295,24.5 µM (inactive)
same,GI50,KM12,30.3 µM (inactive)
same,GI50,SNB-75,8.63 µM (inactive)
same,GI50,LOX IMVI,44.6 µM (inactive)
same,GI50,TK-10,31.9 µM (inactive)
same,GI50,MDA-MB-231,28.3 µM (inactive)
same,GI50,MCF7,27.2 µM (inactive)

# From ChEMBL document CHEMBL1201862, “PubChem BioAssay data set” (2004)
